According to ChEMBL document CHEMBL1201862, “PubChem BioAssay data set” (2004):
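Five compound concentrations were applied to cells in 96-well plates for 48 hours; endpoints were derived by simple linear interpolation of the resulting dose-response curve. Abbreviation: GI50, concentration required for 50% inhibition of growth.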 The source made the active and inactive calls. Cut-off read from the data, not from the text of the source: active = GI50 up to about 1.1 µM and inactive = higher.

Assays:
Assay in all cases: growth of human tumour cells (NCI), 48 h
786-0 = system: 786-0
A498 = system: A498
ACHN = system: ACHN
BT-549 = system: BT-549
CAKI-1 = system: CAKI-1
CCRF-CEM = system: CCRF-CEM
COLO 205 = system: COLO 205
DU-145 = system: DU-145
EKVX = system: EKVX
HCC 2998 = system: HCC 2998
HCT-116 = system: HCT-116
HCT-15 = system: HCT-15
HL-60 = system: HL-60
HOP-62 = system: HOP-62
HOP-92 = system: HOP-92
HT-29 = system: HT-29
Hs-578T = system: Hs-578T
IGROV-1 = system: IGROV-1
K562 = system: K562
KM12 = system: KM12
LOX IMVI = system: LOX IMVI
M14 = system: M14
MCF7 = system: MCF7
MDA-MB-231 = system: MDA-MB-231
MDA-MB-435 = system: MDA-MB-435
MDA-N = system: MDA-N
MOLT-4 = system: MOLT-4
Malme-3M = system: Malme-3M
NCI-H226 = system: NCI-H226
NCI-H23 = system: NCI-H23
NCI-H460 = system: NCI-H460
NCI-H522 = system: NCI-H522
NCI/ADR-RES = system: NCI/ADR-RES
OVCAR-3 = system: OVCAR-3
OVCAR-4 = system: OVCAR-4
OVCAR-5 = system: OVCAR-5
OVCAR-8 = system: OVCAR-8
PC-3 = system: PC-3
RPMI-8226 = system: RPMI-8226
RXF 393 = system: RXF 393
SF-268 = system: SF-268
SF-295 = system: SF-295
SF-539 = system: SF-539
SK-MEL-28 = system: SK-MEL-28
SK-MEL-2 = system: SK-MEL-2
SK-MEL-5 = system: SK-MEL-5
SK-OV-3 = system: SK-OV-3
SN12C = system: SN12C
SNB-19 = system: SNB-19
SNB-75 = system: SNB-75
SR = system: SR
SW-620 = system: SW-620
T47D = system: T47D
TK-10 = system: TK-10
U-251 = system: U-251
UACC-257 = system: UACC-257
UACC-62 = system: UACC-62
UO-31 = system: UO-31

## C#CC1NC(=O)C1N(CC)CC (stereo not drawn)
786-0
  GI50: > 100 µM (inactive)
A498
  GI50: > 100 µM (inactive)
ACHN
  GI50: > 100 µM (inactive)
BT-549
  GI50: > 100 µM (inactive)
CAKI-1
  GI50: 86.5 µM (inactive)
CCRF-CEM
  GI50: > 100 µM (inactive)
COLO 205
  GI50: > 100 µM (inactive)
DU-145
  GI50: > 100 µM (inactive)
EKVX
  GI50: > 100 µM (inactive)
HCC 2998
  GI50: > 100 µM (inactive)
HCT-116
  GI50: > 100 µM (inactive)
HCT-15
  GI50: > 100 µM
HL-60
  GI50: > 100 µM (inactive)
HOP-62
  GI50: > 100 µM (inactive)
HOP-92
  GI50: > 100 µM (inactive)
HT-29
  GI50: > 100 µM (inactive)
Hs-578T
  GI50: > 100 µM (inactive)
IGROV-1
  GI50: > 100 µM (inactive)
K562
  GI50: > 100 µM (inactive)
KM12
  GI50: > 100 µM (inactive)
LOX IMVI
  GI50: > 100 µM (inactive)
M14
  GI50: > 100 µM (inactive)
MCF7
  GI50: > 100 µM (inactive)
MDA-MB-231
  GI50: > 100 µM (inactive)
MDA-MB-435
  GI50: > 100 µM (inactive)
MDA-N
  GI50: > 100 µM (inactive)
MOLT-4
  GI50: > 100 µM (inactive)
Malme-3M
  GI50: > 100 µM (inactive)
NCI-H226
  GI50: > 100 µM (inactive)
NCI-H23
  GI50: > 100 µM (inactive)
NCI-H460
  GI50: > 100 µM (inactive)
NCI-H522
  GI50: > 100 µM (inactive)
NCI/ADR-RES
  GI50: > 100 µM (inactive)
OVCAR-3
  GI50: > 100 µM (inactive)
OVCAR-4
  GI50: > 100 µM (inactive)
OVCAR-5
  GI50: > 100 µM (inactive)
OVCAR-8
  GI50: > 100 µM (inactive)
PC-3
  GI50: > 100 µM (inactive)
RPMI-8226
  GI50: > 100 µM (inactive)
RXF 393
  GI50: > 100 µM (inactive)
SF-268
  GI50: > 100 µM (inactive)
SF-295
  GI50: > 100 µM (inactive)
SF-539
  GI50: > 100 µM (inactive)
SK-MEL-28
  GI50: > 100 µM (inactive)
SK-MEL-2
  GI50: > 100 µM (inactive)
SK-MEL-5
  GI50: > 100 µM (inactive)
SK-OV-3
  GI50: > 100 µM (inactive)
SN12C
  GI50: > 100 µM (inactive)
SNB-19
  GI50: > 100 µM (inactive)
SNB-75
  GI50: 14.6 µM (inactive)
SR
  GI50: > 100 µM (inactive)
SW-620
  GI50: > 100 µM (inactive)
T47D
  GI50: > 100 µM (inactive)
TK-10
  GI50: > 100 µM (inactive)
U-251
  GI50: > 100 µM (inactive)
UACC-257
  GI50: > 100 µM (inactive)
UACC-62
  GI50: > 100 µM (inactive)
UO-31
  GI50: > 100 µM (inactive)
